{
  "source": "patent US4322346A",
  "about": "“5H-2,3-Benzodiazepine derivatives” (priority 1978, dated 1982)",
  "type_in_all_cases": "in vivo",
  "key": {"mice [1]": {"test_system": "mice", "experiment": "Narcosis potentiating activity on mice (sodium hexobarbital narcosis)", "conditions": "for Narcosis potentiating activity on mice, Relative activity: relative to Grandaxin (1.0)", "experimental": "When studying the narcosis potentiating effect, the benzodiazepine compounds were administered to mice in oral dosages of 12.5, 25, 50 or 100 mg/kg, and 30 minutes later 50 mg/kg of sodium hexobarbital were injected intravenously into the animals. The percentage prolongation of the narcosis period, compared to the value observed in the control group treated with sodium hexobarbital alone, was calculated. In these tests Grandaxin was applied again as reference substance."}, "mice [2]": {"test_system": "mice", "experiment": "Fighting behaviour test on mice (method of Tedeschi et al.)", "experimental": "(§1) The tests were performed on mice. In the examination of the general behaviour the animals were treated intraperitoneally with 100 mg/kg or orally with 200 mg/kg of the compound in question. The fighting behaviour test was performed according to the method of Tedeschi et al. (J. Pharm. Exp. Ther. 25, 28 /1959/). The observations concerning the general behaviour of the animals and the ED50 values obtained in the fighting behaviour test are summarized in Table 1. In these tests 1-(3,4-dimethoxyphenyl)-4-methyl-5-ethyl-7,8-dimethoxy-5H-2,3-benzodiazepine (Grandaxin) was applied as reference substance."}, "mice [3]": {"test_system": "mice", "experiment": "General behaviour of mice", "conditions": "100 mg/kg i.p. and, resp., 200 mg/kg p.o., SMA = spontaneous motor activity", "experimental": "These compounds decrease the spontaneous motor activity and potentiate the effect of narcotics.\nas §1"}},
  "data": [
    {"smiles": "CCC(C)Oc1cc2c(cc1OC)C(c1ccc(OC)c(OC)c1)=NN=C(C)C2CC", "note": "(stereo not drawn) [Example 35, 1-(3,4-dimethoxyphenyl)-4-methyl-5-ethyl-7-sec.butoxy-8-methoxy-5H-2,3-benzodiazepine]", "values": [
      {"measurement": "Narcosis potentiating activity on mice, Relative activity", "setting": "mice [1]; 25 mg/kg p.o.", "result": 1.11},
      {"measurement": "Narcosis potentiating activity on mice, Relative activity", "setting": "mice [1]; 50 mg/kg p.o.", "result": 1.52},
      {"measurement": "Narcosis potentiating activity on mice, Relative activity", "setting": "mice [1]; 100 mg/kg p.o.", "result": 3.26},
      {"measurement": "change in vivo at 25 mg/kg", "setting": "mice [1]; Mus musculus, po, 25 mg/kg p.o., 30 minutes before 50 mg/kg sodium hexobarbital i.v., prolongation vs control, read-out: Narcosis potentiating activity on mice, Increase, %", "result": 90, "unit": "%"},
      {"measurement": "change in vivo at 50 mg/kg", "setting": "mice [1]; Mus musculus, po, 50 mg/kg p.o., 30 minutes before 50 mg/kg sodium hexobarbital i.v., prolongation vs control, read-out: Narcosis potentiating activity on mice, Increase, %", "result": 173, "unit": "%"},
      {"measurement": "change in vivo at 100 mg/kg", "setting": "mice [1]; Mus musculus, po, 100 mg/kg p.o., 30 minutes before 50 mg/kg sodium hexobarbital i.v., prolongation vs control, read-out: Narcosis potentiating activity on mice, Increase, %", "result": 780, "unit": "%"},
      {"measurement": "ED50", "setting": "mice [2]; Mus musculus, po, mice", "result": 60, "unit": "mg/kg"},
      {"measurement": "\"Fighting behaviour\" test on mice, relative activity", "setting": "mice [2]; relative to Grandaxin (1.0), from ED50 p.o.", "result": 1.1},
      {"measurement": "General behaviour", "setting": "mice [3]", "result": "Decrease of SMA"}
    ]}
  ]
}
